These results are taken from patent US20260345605A1, “THERAPEUTIC AGENTS FOR HEART FAILURE” (Ottawa Hospital Research Institute, priority 2023, published 2026).

Each structure is given as a SMILES string.

In experiment [1] the test system is cardiac fibrosis. Put plainly: Cardiac fibrosis by Masson's trichome staining in PE rat model. Format: in vivo, Sprague Dawley rat. The protocol: (§1) Animal Model Preparation. Sprague Dawley rats were continuously treated with phenylephrine (PE), an α-adrenergic agonist that causes vasoconstriction leading to increased afterload and decreased ventricular function, to create a left-ventricular dysfunction animal model. […] For chronic infusion of phenylephrine, Alzet® mini-osmotic pumps (2002, Durect® Corp) containing Phenylephrine (PE) (10 mg/kg/day) or PBS vehicle were surgically implanted dorsally and subcutaneously in each Sprague Dawley rat under isoflurane anaesthesia. The animals were allowed to develop left ventricular hypertrophy for 2 weeks following the osmotic pump implantation.
(§2) Echocardiography was performed, the animals were sacrificed at 3 weeks endpoint and the blood and tissue were harvested for further analysis.
The rat model was prepared as described in Example 12, and the cardiac tissue harvested at the end of the 3 weeks was prepared with Masson's trichome staining methodology, which is a histological technique used to visualize and assess connective tissue, particularly collagen, within biological samples.

In experiment [2] the test system is phenylephrine induced left ventricular hypertrophy. Nature of the experiment: Phenylephrine-induced left ventricular hypertrophy rat model: heart weight and echocardiography. The experiment is classed as in vivo, Sprague Dawley rat. The method, then:
as §1, §2

Experiment [3] relates to iPS cell-derived cardiomyocytes (iCell Cardiomyocytes). Nature of the experiment: Secondary screening: morphometric analysis of iCell Cardiomyocytes. Format: cell-based, human. The text has this:
A library of 800 small molecule compounds that can stimulate favorable cardiac adaptation in primary neonatal rat ventricular myocytes (NRVM) was screened. To identify the beneficial modifiers of hypertrophy, the Cellomics Arrayscan High Throughput Screening platform was employed to quantify morphometric features such as, for example, length, width, and length to width ratio from images acquired using a 10× lens for DAPI-labeled nuclei and CY3 labeled α actinin stained cardiomyocytes in a 96 well format. The lead compound was also screened in iPSC derived cardiomyocytes as a part of secondary screening as it offers a physiologically relevant human cell-based model.
(§3) A secondary screening was performed with 10 drugs identified from primary screening for their ability to induce physiological remodeling using morphometric analysis and measuring the levels of B-type natriuretic peptide (BNP), as a surrogate indicator of the hypertrophic response using ELISA. The compounds were selected based on the highly enriched targets identified in the drug set enrichment analysis with a high Z score. Cryopreserved iPS cell-derived cardiomyocytes (“iCell Cardiomyocytes”) obtained from Cellular Dynamics International (CDI, Madison, WI) were used as a cell model to perform the screening.
The cells were plated at a density of 2.5×10^4 cells onto 25 mm diameter fibronectin coated glass coverslips in plating media for 48 hours. The media was replaced with Supplemented William's E (SWE) medium (SWE) media supplemented with cocktail containing penicillin-streptomycin, ITS+(insulin, transferrin, selenium complex, BSA, and linoleic acid), GlutaMAX™, and HEPES (Primary Hepatocyte Maintenance Supplements-GIBCO) for 48 hours. The cells were treated with controls (CT1-40 ng/mL, PE-100 uM) and drugs (AZD1152-HQPA, LY283519) at varying concentrations (2.5, 1, 0.5, and 0.25 uM) for 24 hours.
Post treatments, the cells were washed, fixed and treated with primary antibody, secondary antibody similar to the protocol of Example 3. The effect on the morphometric parameters was assessed using Cellomics Arrayscan Vti HCS reader. The Image acquisition was performed using the Zeiss AxioVision SE64 Imaging software and analyzed using the ImageJ2 software.
iCell cardiomyocytes were seeded at a density of 10,000 cells per well in a 96 well plate format. The cells were maintained as in Example 3 and were treated with controls (hCT1, PE) and drugs (AZD1152-HQPA, LY283519) at four different concentrations for 24 hours. The cells were then fixed and stained with a Actinin for cardiomyocytes followed by nuclear staining with DAPI. The plates were analyzed in Cellomics Arrayscan Vti HCS reader to assess morphometric changes following treatment.

Experiment [4] has as its system NT Pro-BNP (iCell Cardiomyocyte). Put plainly: NT Pro-BNP ELISA in iCell Cardiomyocyte supernatants. Particulars: 24 hour; for Mean NT Pro-BNP levels: iCell Cardiomyocyte, UT 2407.521; for Pro-NT BNP levels compared to UT and CT1 treated cells: iCell cardiomyocytes. The experiment is classed as cell-based, human. The method, then: as §3
Pro-NT BNP levels in the culture media were measured following the 24 hour treatment using the Human NT Pro-BNP DuoSet ELISA kit (R&D Systems, Minnesota USA) as per the manufacturer's instruction. […] The plates were read on BMG BioTek Molecular Devices SpectraMax Microplate Reader at 450 nm to obtain the optical density followed by reading at 540 nm for wavelength correction.
Protein levels were identified by plotting a 4 parametric logistic regression curve using the standards provided with the kit.

For experiment [5], the system named is cardiac angiogenesis (CD31). Nature of the experiment: Cardiac angiogenesis by CD31 staining in PE rat model. The experiment is classed as in vivo, Sprague Dawley rat. The protocol:
as §1, §2
The rat model was prepared as described in Example 12, and the cardiac tissue harvested at the end of the 3 weeks was prepared for CD31 Staining, which is a histological technique used to visualize and assess angiogenesis in cardiac tissue.

The subject of experiment [6] is collagen type I. Nature of the experiment: Collagen type I immunofluorescence in NRVM. The experiment is classed as cell-based, neonatal rat. The method, then: Primary NRVMs were seeded at a density of 2.7×10^5 cells directly onto 25 mm diameter collagen-coated glass coverslips. The treatments with control (PE) and drugs LY283519 were performed for 24 hours. […] Post treatment, the cells were washed three times in PBS followed by fixation in 4% paraformaldehyde for 30 min. Cells were then permeabilized in blocking buffer (1% bovine serum albumin (BSA), 2% normal goat serum, 0.4% Tx-100 in PBS) for 15 min and were incubated for 2 h at room temperature with primary a Actinin and collagen type I antibody, followed by three successive washes in PBS in a humidified chamber. Cells were then blocked again in blocking buffer for 15 min followed by a 1-hour incubation in fluorescently conjugated secondary antibody. Cells were then washed again in PBS and the nuclei were counterstained with 4′,6-diamidino-2-phenylindole (DAPI). The cells were mounted onto microscope slides with Dako Cytomation fluorescent mounting medium (Dako). Digital fluorescent images were obtained using the Zeiss AxioVision SE64 Imaging software and analyzed using ImageJ2 software.

The mark [7] stands for this setting: LY2835219 alone and in rats subjected to phenylephrine.
[8] abbreviates: PE treated rats, 3 weeks LY2835219 75 mg/kg/day oral.
The mark [9] stands for this setting: single treatment, 24 hours, vs control.
Setting [10] is: PE, compared to control sham animals.
Setting [11] is: systole and diastole, PE compared to control and LY2835219 group.

With `CCN1CCN(Cc2ccc(Nc3ncc(F)c(-c4cc(F)c5nc(C)n(C(C)C)c5c4)n3)nc2)CC1` [LY2835219], the cardiac fibrosis entry in experiment [1] (LY2835219 in animals subjected to PE treatment) is recorded as “did reduce fibrosis”; in experiment [1] (LY2835219 treatment alone), “did not induce fibrosis”. Besides, the “effect in phenylephrine induced left ventricular hypertrophy” value in experiment [2] (LY2835219 75 mg/kg/day oral, 3 weeks) is “anti-hypertrophic effect”. In addition, the cardiac output entry in experiment [2] (setting [7]) is “improved”. In experiment [2] (setting [7]), the ejection fraction entry is given as “improved”. Also, in experiment [2] (setting [7]), the fractional shortening entry is listed as “improved”. Moreover, the stroke volume entry in experiment [2] (setting [7]) was “improved”. Besides, in experiment [2] (PE 2 weeks followed by LY2835219 3 weeks, 75 mg/kg/day oral), the “PE effect on left ventricular internal diameter” value is “reversed”. Further, the “cardiac function (ejection fraction, fractional shortening, stroke volume, cardiac output)” value in experiment [2] (PE treated rats subjected to LY2835219 for 3 weeks, compared with control rats and PE treated rats) was “significantly enhanced cardiac function”. For the same molecule, in experiment [2] (setting [8]), the “PE effect on thickness of left ventricular anterior wall” value is “reversed”. Also, the “PE effect on thickness of left ventricular posterior wall” value in experiment [2] (setting [8]) is given as “reversed”. Moreover, the “PE effect on thickness of septal wall” value in experiment [2] (setting [8]) is listed as “reversed”. The Mean Cardiomyocyte Length was found to be 221 µm in experiment [3] (iCell Cardiomyocyte, drug 0.25 μm, 24 hours, UT 213.01323); 239 µm in experiment [3] (iCell Cardiomyocyte, drug 0.5 μm, 24 hours, UT 213.01323); 242 µm in experiment [3] (iCell Cardiomyocyte, drug 1 μm, 24 hours, UT 213.01323); 245 µm in experiment [3] (iCell Cardiomyocyte, drug 2.5 μm, 24 hours, UT 213.01323). Moreover, the Eccentric cardiac remodeling entry in experiment [3] (iCell cardiomyocyte, 1 uM, FIG. 4A) is “Eccentric cardiac remodeling was observed”. Also, the “cardiomyocyte length compared with CT1 treated cells” value in experiment [3] (iCell cardiomyocytes on coverslips, 24 hours) is reported as “comparable cardiomyocyte length”. Moreover, in experiment [3] (iCell cardiomyocytes, 96 well, four concentrations, 24 hours), the “length in iCell cardiomyocyte compared to hCT1” value is on record as “increased length in iCell cardiomyocyte comparable to length induced by hCT1”. The figures for the “Mean NT Pro-BNP levels” value in experiment [4] (drug 0.25 μm), in experiment [4] (drug 0.5 μm) and in experiment [4] (drug 2.5 μm) were 1232.484 pg/mL, 1226.226 pg/mL and 1747.475 pg/mL, respectively. Moreover, in experiment [4], the “Pro-NT BNP levels compared to UT and CT1 treated cells” value is “comparable and/or reduced BNP levels”. For the same molecule, the cardiac angiogenesis result in experiment [5] (LY2835219 in PE treated animals) is “improve angiogenesis”; in experiment [5] (LY2835219 treatment), “increased angiogenesis”. Moreover, the “expression of collagen type I” value in experiment [6] (PE for 24 hrs followed by LY2835219 for 24 hrs) is “decreased expression of collagen type I”; in experiment [6] (setting [9]) it was “decrease in expression of collagen type I”.

Take `CNC[C@H](O)c1cccc(O)c1` [PE, phenylephrine]: the cardiac fibrosis entry in experiment [1] (setting [10]) is on record as “significant increase in cardiac fibrosis”. The “Heart Weight/Body Weight ratio” value in experiment [2] (PE 10 mg/kg/day, compared to sham (PBS), LY2835219 alone, and PE 2 weeks followed by 3 weeks LY2835219) is listed as “significantly increased”. For the same molecule, in experiment [2] (PE treated group compared to control and drug treatment group, FIG. 14), the “heart size (whole heart image)” value is “enlarged”. In experiment [2] (PE treated rats, after 2 weeks), the cardiac output entry is listed as “decreased”, the ejection fraction result was “decreased”, the percentage fractional shortening entry is “decreased” and the stroke volume entry was “decreased”. Further, the “left ventricular internal diameter” value in experiment [2] (PE treatment group) is “reduced”. In experiment [2] (setting [11]), the “thickness of left ventricular anterior wall” value is “increased thickness”, the “thickness of left ventricular posterior wall” value was “increased thickness” and the “thickness of septal wall” value is listed as “increased thickness”. Also, the Mean Cardiomyocyte Length in experiment [3] (24 h, 100 µM) was 191 µm. The “Mean NT Pro-BNP levels” value in experiment [4] (control PE) is 3236.015 pg/mL. The “Pro-NT BNP levels compared to UT and CT1 treated cells” value in experiment [4] was “significantly elevated levels”. The CD31 staining entry in experiment [5] (setting [10]) is “significantly decreased CD31 staining”. In experiment [6] (setting [9]), the “expression of collagen type I” value was “increased expression of type I collagen compared to control”.
